Converted amounts (≈) assume the structure as drawn. Read-outs that look alike come from different tables or passages of the source. Numbered stars: 1 amine (or outer) side, 2 acyl side, 3 side chain; on linkers, the order of the positions; unused ones are H or OH. Square brackets hold non-standard residues; d marks the D form. Peptide text beside a SMILES is read from it. X2 = CCC[C@H](C)N(CC(=O)[*:2])[*:1]; Nspe = C[C@H](NCC(=O)O)c1ccccc1; Nphe = O=C(O)CNCc1ccccc1; Nlys = NCCCCNCC(=O)O
Tests used:
[1] = RP-HPLC elution solvent composition as measure of molecular hydrophobicity; format: physicochemical
From the text: An initial set of 15 ampetoid analogs was synthesized to determine whether peptoids are affected by structural and sequence modifications in a manner consistent with AMP activities. The designs for ampetoids in this library were derived from two antibacterial and selective amphipathic dodecamers, 1 and 2. Peptoid 1 [H-(Nlys-Nspe-Nspe)4—NH2] is composed of 2/3 Nspe, the peptoid analog of phenylalanine, and 1/3 Nlys, the peptoid analog of lysine (see FIG. 1 for the structures of representative peptoid monomers and corresponding N-substituents). Peptoid 2 [H-(Nlys-Nssb-Nspe)4—NH2] contains 1/3 isoleucine-like Nssb monomers in place of Nspe. The variant sequences were designed to effect changes in chirality, length, hydrophobicity, charge, and amphipathicity. All of these compounds were tested for antibacterial activity against representative BSL1 Gram-negative (E. coli JM109) and Gram-positive (B. subtilis BR151) bacterial strains. As an initial measure of selectivity, the lytic activity of the peptoids was determined against human erythrocytes. Table 1 summarizes the sequences synthesized, the solvent composition at RP-HPLC elution as a relative measure of molecular hydrophobicity, and antibacterial and hemolytic activities.
Following synthesis, peptoid oligomers can be cleaved from the resin, simultaneously removing the tert-butoxycarbonyl (Boc) protecting group from Nlys residues, by treatment with 10 ml 2,2,2-trifluoroacetic acid (TFA)/triisopropylsilane/H2O (95:2.5:2.5 by volume) for 30 min. The cleavage mixture is then diluted with 25 ml 50% aqueous acetonitrile, frozen, and lyophilized. Dilution and lyophilization is repeated twice more in order to remove excess TFA. Subsequent to cleavage, peptoids are each purified to >97% homogeneity by preparative scale reversed-phase HPLC using a Waters Prep LC 4000 system, with Waters 2487 dual-wavelength UV detection, and gradient elution (solvent A, 0.1 vol % trifluoroacetic acid (TFA) in water; solvent B, 0.1 vol % TFA in acetonitrile) through a Vydac (Hysperia, Calif.) 214TP101550 C4 peptide/protein column (10-15 μm, 300 Å, 5×25 cm). Following prep HPLC, peptoid purities and crude yields were determined from analytical scale HPLC, performed with a Waters 2695 Separations Module with a Waters 2487 dual-wavelength UV detector and gradient elution (solvent A, 0.1 vol % TFA in water; solvent B, 0.1 vol % TFA in acetonitrile) through a Vydac C4 214TP53 peptide/protein column (5 μm, 300 Å, 3.2×250 mm). The precise gradient employed for HPLC depended on the identity and hydrophobicity of the oligomer in question. All analytical HPLC was performed at 0.5 ml/min flow and 58° C. Preparative HPLC was performed at 50 ml/min flow and room temperature.

human erythrocytes = assay: Hemolysis assay; format: cell-based
Procedure, shortened: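 Human erythrocytes from fresh heparinised blood, 20 vol % in PBS pH 7.4, mixed 1:1 with 2-fold serial peptoid dilutions; PBS as 0% and 0.2 vol % Triton X-100 as 100% hemolysis. Incubated 1 h at 37 °C, diluted, centrifuged 1200 g for 15 min; supernatant A350 read.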

B. subtilis (ATCC 6633) = format: cell-based; conditions: ATCC 6633
Procedure, shortened: (§1)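 MICs by broth microdilution per CLSI M7-A6 in cation-adjusted Mueller-Hinton broth, using 2:1 serial dilutions of peptoid and a bacterial inoculum of 1×10^6 CFU/mL. Values reproducible over three experiments, each with two parallel trials.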

E. coli (ATCC 35218) = format: cell-based; conditions: ATCC 35218
Procedure, shortened: as §1

[2] = MTS assay, metabolic inhibition; format: cell-based, mouse
Procedure, shortened: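 NIH/3T3 cells seeded at 5,000 per well, grown a day, then exposed to serially diluted peptoids in HBSS together with MTS reagent. Absorbance at 490 nm read after 3 hours at 37° C.; mean of six replicates.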

[3] = test system: Klebsiella pneumoniae ATCC 33495; format: cell-based; conditions: ATCC 33495
Experimental: (§2) Antibacterial assays. MICs were determined according to CLSI M7-A6 protocols in a 96-well microtiter plate. In test wells, 50 μL bacterial inoculum (5×10^5 CFU/ml) in Mueller-Hinton broth (MHB) was added to 50 μL peptoid solution in MHB (prepared by 1:2 serial dilutions). Positive controls contained 50 μL inoculum and 50 μL MHB without peptoid. […] MIC values reported were reproducible between three independent experimental replicates, each consisting of two parallel trials. Broad-spectrum antimicrobial susceptibility testing was performed against BSL2 pathogens by Nova Biologicals, Inc. (Conroe, Tex.).
(§3) Broad-spectrum antibacterial assays. MICs of compounds were determined by microdilution procedure in Mueller-Hinton broth (MHB) in accordance with CLSI M7-A6 protocols in a manner similar to that described for the screen antibacterial assays. Inoculated microtiter plates were incubated at 35° C. for 24 hours prior to the result being recorded. Four ATCC strains that were used as standards are recommended by CLSI: Pseudomonas aeruginosa ATCC 27853, Escherichia coli ATCC 25922, Staphylococcus aureus ATCC 29213 and Enterococcus faecalis ATCC 29212. Other strains from the ATCC collection include Proteus vulgaris ATCC 49132, Proteus mirabilis ATCC 35659, Klebsiella pneumoniae ATCC 33495, Enterobacter aerogenes ATCC 35029 and Serratia marcescens ATCC 13880. S. aureus NRS100 (COL) is a well characterized methicillian-resistant S. aureus (MRSA) strain. The strains S. aureus VAN1 and S. aureus VAN2, vancomycin-resistant MRSA strains that were isolated in Michigan and Pennsylvania, were the first vancomycin-resistant strains clinically isolated. S. aureus NRS119 and S. aureus NRS120 are linezolid-resistant isolates from the Network on Antimicrobial Resistance in S. aureus (NARSA) collection. E. faecalis 99 and E. faecium 106 are vancomycin-resistant enterococcal strains.

[4] = test system: Enterococcus faecalis ATCC 29212; format: cell-based; conditions: ATCC 29212
Experimental: as §2, §3

[5] = test system: Staphylococcus aureus NRS120; format: cell-based; conditions: NRS120
Experimental: as §2, §3

[6] = test system: Enterobacter aerogenes ATCC 35029; format: cell-based; conditions: ATCC 35029
Experimental: as §2, §3

[7] = test system: Proteus vulgaris ATCC 49132; format: cell-based; conditions: ATCC 49132
Experimental: as §2, §3

[8] = test system: Serratia marcescens ATCC 13880; format: cell-based; conditions: ATCC 13880
Experimental: as §2, §3

[9] = test system: Staphylococcus aureus NRS119; format: cell-based; conditions: NRS119
Experimental: as §2, §3

[10] = test system: Proteus mirabilis ATCC 35659; format: cell-based; conditions: ATCC 35659
Experimental: as §2, §3

Enterococcus faecalis 99 = format: cell-based; conditions: 99
Experimental: as §2, §3

Enterococcus faecium 106 = format: cell-based; conditions: 106
Experimental: as §2, §3

[11] = test system: Staphylococcus aureus VAN1; format: cell-based; conditions: VAN1
Experimental: as §2, §3

[12] = test system: Escherichia coli ATCC 25922; format: cell-based; conditions: ATCC 25922
Experimental: as §2, §3

[13] = test system: Pseudomonas aeruginosa ATCC 27853; format: cell-based; conditions: ATCC 27853
Experimental: as §2, §3

[14] = test system: Staphylococcus aureus NRS100 (COL); format: cell-based; conditions: NRS100 (COL)
Experimental: as §2, §3

[15] = test system: Staphylococcus aureus ATCC 29213; format: cell-based; conditions: ATCC 29213
Experimental: as §2, §3

[16] = test system: Staphylococcus aureus VAN2; format: cell-based; conditions: VAN2
Experimental: as §2, §3

Row | SMILES | B. subtilis MIC (B. subtilis (ATCC 6633)) [µM] | E. coli MIC (E. coli (ATCC 35218)) [µM] | IC50 [2] [µM] | MIC Klebsiella pneumoniae ATCC 33495 [3] [µM] | MIC Enterococcus faecalis ATCC 29212 [4] [µM] | MIC Staphylococcus aureus NRS120 [5] [µM] | MIC Enterobacter aerogenes ATCC 35029 [6] [µM] | MIC Proteus vulgaris ATCC 49132 [7] [µM] | MIC S. marcescens ATCC 13880 [8] [µg/mL] | MIC Serratia marcescens ATCC 13880 [8] [µM] | MIC Staphylococcus aureus NRS119 [9] [µM] | MIC P. mirabilis ATCC 35659 [10] [µg/mL] | MIC Proteus mirabilis ATCC 35659 [10] [µM] | MIC Enterococcus faecalis 99 (Enterococcus faecalis 99) [µM] | MIC Enterococcus faecium 106 (Enterococcus faecium 106) [µM] | MIC Staphylococcus aureus VAN1 [11] [µM] | MIC Escherichia coli ATCC 25922 [12] [µM] | MIC Pseudomonas aeruginosa ATCC 27853 [13] [µM] | HD10 (human erythrocytes) | HD50 (human erythrocytes) | also measured
1 | CCC[C@H](C)N(CC(=O)N(CC(N)=O)[C@@H](C)c1ccccc1)C(=O)CN(CCCCN)C(=O)CN(C(=O)CN(C(=O)CN(CCCCN)C(=O)CN(C(=O)CN(C(=O)CN(CCCCN)C(=O)CN(C(=O)CN(C(=O)CNCCCCN)[C@@H](C)CCC)[C@@H](C)c1ccccc1)[C@@H](C)CCC)[C@@H](C)c1ccccc1)[C@@H](C)CCC)[C@@H](C)c1ccccc1 [2-Nsap2,5,8,11] (H-[Nlys][X2][Nspe][Nlys][X2][Nspe][Nlys][X2][Nspe][Nlys][X2][Nspe]-NH2) |  |  |  |  |  |  |  |  |  |  |  |  |  |  |  |  |  |  |  |  | HPLC elution solvent ([1]; Table 1, percent acetonitrile in water, 0.1% (v/v) TFA at HPLC elution): 48%; HD10 (10% hemolytic dose) (human erythrocytes; red cells of human, 1 h): >120/>120 μM; HD50 (50% hemolytic dose) (human erythrocytes; red cells of human, 1 h): >120/>120 μM
2 | C[C@@H](c1ccccc1)N(CC(N)=O)C(=O)CN(C(=O)CN(CCCCN)C(=O)[C@@H]1CCCN1C(=O)CN(C(=O)CN(CCCCN)C(=O)CN(C(=O)CN(C(=O)CN(CCCCN)C(=O)CN(C(=O)CN(C(=O)CNCCCCN)[C@@H](C)c1ccccc1)[C@@H](C)c1ccccc1)[C@@H](C)c1ccccc1)[C@@H](C)c1ccccc1)[C@@H](C)c1ccccc1)[C@@H](C)c1ccccc1 [1-Pro9, H-(Nlys-Nspe2)2-Nlys-Nspe-L-Pro-(Nlys-Nspe2)-NH2] (H-[Nlys][Nspe][Nspe][Nlys][Nspe][Nspe][Nlys][Nspe]P[Nlys][Nspe][Nspe]-NH2) | 1.6 | 12.5 | 24 | 9.1 (≈ 16 µg/mL) | 4.6 (≈ 8.07 µg/mL) | 9.1 (≈ 16 µg/mL) | 36.5 (≈ 64.1 µg/mL) | 36.5 (≈ 64.1 µg/mL) | >128 | >72.9 | 9.1 (≈ 16 µg/mL) | >128 | >72.9 | 36.5 (≈ 64.1 µg/mL) | 2.3 (≈ 4.04 µg/mL) | 4.6 (≈ 8.07 µg/mL) | 4.6 (≈ 8.07 µg/mL) | 18.2 (≈ 31.9 µg/mL) | 165 µM | > 200 µM | MIC Staphylococcus aureus NRS100 (COL) [14]: 4.6 µM (≈ 8.07 µg/mL); MIC Staphylococcus aureus ATCC 29213 [15]: 9.1 µM (≈ 16 µg/mL); MIC Staphylococcus aureus VAN2 [16]: 4.6 µM (≈ 8.07 µg/mL)
3 | C[C@@H](c1ccccc1)N(CC(N)=O)C(=O)CN(Cc1ccccc1)C(=O)CN(CCCCN)C(=O)CN(C(=O)CN(Cc1ccccc1)C(=O)CN(CCCCN)C(=O)CN(C(=O)CN(Cc1ccccc1)C(=O)CN(CCCCN)C(=O)CN(C(=O)CN(Cc1ccccc1)C(=O)CNCCCCN)[C@@H](C)c1ccccc1)[C@@H](C)c1ccccc1)[C@@H](C)c1ccccc1 [1-Npm2,5,8,11, H-(Nlys-Npm-Nspe)4-NH2] (H-[Nlys][Nphe][Nspe][Nlys][Nphe][Nspe][Nlys][Nphe][Nspe][Nlys][Nphe][Nspe]-NH2) | 1.6 | 6.3 | 6.8 | 9.1 (≈ 16 µg/mL) | 4.5 (≈ 7.93 µg/mL) | 9.1 (≈ 16 µg/mL) | 36.3 (≈ 64 µg/mL) | 36.3 (≈ 64 µg/mL) | >128 | >72.6 | 9.1 (≈ 16 µg/mL) | >128 | >72.6 | 36.3 (≈ 64 µg/mL) | 2.3 (≈ 4.06 µg/mL) | 4.5 (≈ 7.93 µg/mL) | 4.5 (≈ 7.93 µg/mL) | 36.3 (≈ 64 µg/mL) | 87 µM | > 200 µM | MIC Staphylococcus aureus NRS100 (COL) [14]: 4.5 µM (≈ 7.93 µg/mL); MIC Staphylococcus aureus ATCC 29213 [15]: 4.5 µM (≈ 7.93 µg/mL); MIC Staphylococcus aureus VAN2 [16]: 4.5 µM (≈ 7.93 µg/mL)
4 | CC(C)[C@H](C)N(CC(N)=O)C(=O)CN(C(=O)CN(CCCCN)C(=O)CN(C(=O)CN(C(=O)CN(CCCCN)C(=O)CN(C(=O)CN(C(=O)CN(CCCCN)C(=O)CN(C(=O)CN(C(=O)CNCCCCN)[C@@H](C)C(C)C)[C@@H](C)C(C)C)[C@@H](C)C(C)C)[C@@H](C)C(C)C)[C@@H](C)C(C)C)[C@@H](C)C(C)C)[C@@H](C)C(C)C [1-Nsdpall, H-(Nlys-Nsdp-Nsdp)4-NH2] |  | 50 | 64 |  |  |  |  |  |  |  |  |  |  |  |  |  |  |  | >200/>200 μM | >200/>200 μM | HPLC elution (% ACN) ([1]; Table 5, average of three injections, linear 5%-95% acetonitrile/water (0.1% TFA) over 45 minutes, C18 column, measure of hydrophobicity): 63.2 % ACN; B. subtilis MIC (B. subtilis (ATCC 6633); Table 6): 0.78 µM; E. coli MIC (E. coli (ATCC 35218); Table 6): 25 µM

From US20100036088A1, “Selective poly-N-substituted glycine antibiotics” (priority 2008, published 2010)
